This is an account of results in patent publication US20070010428A1, “Inhibitors of signal transduction and activator of transcription 3” (priority 2004, published 2007).

Read-outs that look alike come from different tables or passages of the source. Where a SMILES comes first, the peptide text is derived from it. [ ]: non-standard residue; d: D form. pY = N[C@@H](Cc1ccc(OP(=O)(O)O)cc1)C(=O)O; mts = not defined here

The target of one assay is T1, full length Stat3 (Homo sapiens, UniProt P40763).
T1 construct: Aliquots of 50 μl of 80 nM full length Stat^3a and 20 nM of probe
T1 sequence (P40763 whole entry, species assumed): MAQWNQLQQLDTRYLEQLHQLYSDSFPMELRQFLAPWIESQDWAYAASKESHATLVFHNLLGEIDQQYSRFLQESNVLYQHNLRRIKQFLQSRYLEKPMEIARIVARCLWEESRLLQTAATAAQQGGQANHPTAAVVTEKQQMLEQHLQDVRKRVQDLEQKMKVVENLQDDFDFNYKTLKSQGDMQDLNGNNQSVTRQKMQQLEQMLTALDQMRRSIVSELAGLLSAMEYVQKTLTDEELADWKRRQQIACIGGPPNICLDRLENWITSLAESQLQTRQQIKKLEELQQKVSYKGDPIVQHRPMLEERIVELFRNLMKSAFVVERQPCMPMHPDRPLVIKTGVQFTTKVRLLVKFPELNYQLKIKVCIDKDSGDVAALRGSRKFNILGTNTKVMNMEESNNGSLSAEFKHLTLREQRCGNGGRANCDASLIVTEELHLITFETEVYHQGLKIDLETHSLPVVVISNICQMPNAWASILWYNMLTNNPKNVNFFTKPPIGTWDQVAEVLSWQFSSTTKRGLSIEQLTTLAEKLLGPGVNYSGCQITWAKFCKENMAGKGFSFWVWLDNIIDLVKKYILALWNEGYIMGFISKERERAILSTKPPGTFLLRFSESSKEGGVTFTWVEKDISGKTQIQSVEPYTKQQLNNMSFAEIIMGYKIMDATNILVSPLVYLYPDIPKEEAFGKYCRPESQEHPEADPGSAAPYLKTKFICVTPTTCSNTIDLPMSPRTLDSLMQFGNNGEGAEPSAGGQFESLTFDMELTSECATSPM
The assay can be described thus: Fluorescence polarization assay, competition with FP probe for full length Stat3. The format is binding. As for the experimental part:
FIG. 5 is FP curves of Stat3. Left panel, Titration of full length Stat3 into 10 nM solutions of FP probe. Each protein concentration was run in duplicate and the mean ±½ the difference between the high and low value was plotted. […] Each peptide concentration was run in duplicate and the mean ±½ the difference between the high and low value was plotted. A Perkin Elmer (formerly Packard) 204DT Multiprobe liquid handling robot was used to prepare serial dilutions of the inhibitors and to add these solutions to Stat3-probe solutions. The dilutions and additions were done in 96-well plates and FP was read on a Tecan Polarian plate reader. […]
Fluorescence polarization (FP) is a rapid and easy method for the measurement of peptide-protein interactions, drug-protein interactions, and drug-oligonucleotide interactions, and is readily adaptable to high throughput formats (reviewed in Nasir & Joley, 1999; Owicki, 2000). FP involves exciting a fluorophore with polarized light and taking the ratio of fluorescence at right angles after a brief period of time. […]
Aliquots of 50 μl of 80 nM full length Stat^3a and 20 nM of probe in 50 mM NaCl, 10 mM Hepes, 1 mM Na4EDTA, 2 mM DTT, and 1% NP-40 were placed in wells of a 96 well black, opaque, non-stick microtiter plate. […] Fluorescence polarization was then read in a Tecan Polarian plate reader. […]

For assay [1], the target named is T2, Stat3 (Homo sapiens, UniProt P40763). Conditions: cited from earlier work.
T2 sequence (P40763 whole entry, species assumed): as above
Assay [2] concerns the target T2, Stat3. The assay can be described thus: EMSA of inhibition of Stat3 dimerization and DNA binding by phosphopeptides. The format is biochemical. The note with it: averages of two determinations. The procedure:
To find a lead compound for inhibitor development, a series of phospho-hexapeptides derived from known receptor docking sites for Stat3 were synthesized and assayed for their ability to inhibit Stat3 dimerization and DNA binding using electrophoretic mobility shift assays (EMSA) (Ren et al., 2003). […] SAR experiments were conducted systematically replacing each amino acid. The goal was to find non-peptidic groups that would be stable to phosphatases and proteases, and that would be more hydrophobic to allow greater bioavailability. […] The small peptidomimetics were assayed for their ability to bind to the SH2 domain of Stat3 using fluoresence polarization.
(§1) Nuclear extract was extracted as previously described (Andrews and Faller, 1991). Equal amount of nuclear extract protein was then incubated with ^32P labeled high-affinity c-sis-inducible element (hSIE; 5′-[…]-3′ , SEQ ID NO:25) (Santa Cruz). The reactions were performed in a total volume of 24 μl in buffer consisting of 10 mM HEPES (pH 7.8), 50 mM KCl, 1 mM EDTA, 5 mM MgCl2, 10% glycerol, 5 mM dithiothreitol, 1 mg of bovine serum albumin per ml, 0.5 mM phenyl-methylsulfonylflouride, and 1 mM Na3VO4 with 1 μg of poly (dI-dC) and 0.3 ng of ^32P-labeled hSIE. […] The screen was then scanned and the bands showing Stat3-DNA binding were quantified using the Storm System (Molecular Dynamics).
(In general: Mobility shift assays separate free from complexed probe on a gel.)

Assay [3] has as its system Stat3-responsive α2-macroglobulin promoter. The assay is described as follows: IL-6 stimulated luciferase reporter under α2-macroglobulin promoter in HEPG2 cells. Conditions: for inhibition of luciferase activity, initial screen: IL-6. The format is cell-based. The procedure: Liver hepatoma cells, HEPG2, when stimulated with IL-6, respond by increased phosphorylation of Stat3, which translocates to the nucleus and initiates transcription of acute response phase genes, such as a2-macroglobulin. HEPG2 cells were transfected with luciferase gene construct containing the α2-macroglobulin promoter. Cells were treated with peptides 21, 24, and 25 for 1 hr before stimulation with IL-6. Four hours later cells were lysed and luciferase activity was assayed (FIG. 9). […] Phosphopeptide 24 reduced induction to 60-70% of that of IL-6 at 50 and 100 μM.
(§2) Cell culture and transient transfection. HepG2 cells were grown in DMEM containing 10% fetal bovine serum. Cells were plated at a density of 3×10^5 per 6cm dish. Next day, plasmids were transfected with a plasmid comprised of firefly luciferase under the α2-macroglobulin promoter (Ren & Schaefer, 2002) at a ratio of 1 μg DNA to 3 μl Fugene-6 reagent according to the protocol supplied by Roche. After 48 hours, cells were treated with different peptides in serum free media for 1 hour, and then stimulated with […] IL-6. Cells were harvested at the time indicated.
Luciferase assay. Luciferase assay reagents were purchased from Promega and the assays performed according to the manufacturer's protocol. In brief, cells were washed twice with ice-cold PBS and then collected. After centrifugation at 4,500 rpm for 1 minute, cells were lysed in 1× lysis buffer (Promega) at room temperature for 30 minutes. The lysate was cleared by centrifugation at 13,000 rpm for 10 minutes. Then 50 μl of luciferase substrate was added to 10 μl of supernatant and the luciferase value was read by luminometer (Pharmingen). Each transfection was normalized to concomitant β-galactosidase expression from a control transfected plasmid pYN3214-lacZ.
(In a reporter assay the amount or activity of a reporter protein is the signal.)

In assay [4] the target is T2, Stat3. The assay can be described thus: Stat3 nuclear translocation, EMSA of nuclear extracts of IL-6 stimulated HepG2 cells. The format is cell-based. Conditions: HepG2, 100 μM for 1 hr, IL-6 15 min. The procedure:
FIG. 11 is an image of a gel showing EMSA of nuclear extracts of HEPG2 cells inhibited with peptides. Shown are gels from two independent experiments. Lane 1, control: no IL-6 or inhibitor. Lane 2-6 are all stimulated with IL-6, 6 ng/mL. Lane 2, no inhibitor, Lane 3 phosphopeptide 24, Lane 4, control peptide 25, Lane 5, F2PmCinn peptide 21, Lane 6, prodrug 23.
HepG2 cells were treated with 100 μM peptide for 1 hr. Cells were stimulated with IL-6 and 15 min later cells were lysed and nuclear extracts were obtained.
as §1, with “hSIE. Following incubation for 15 min at room temperature, the reactions were electrophoresed on 4% native polyacrylamide gets.” for “hSIE.”

For assay [5], the system named is Stat3-responsive α2-macroglobulin promoter. The assay is described as follows: IL-6 stimulated luciferase reporter in Hep3B cells. In kind it is cell-based. The note with it: FIG. 10. The procedure:
Peptidomimetic 23 was tested for the ability to inhibit luciferase induction in a second hepatoma cell line: Hep3B. Identical procedures as for the HEPG2 experiments above were used in this cell line.
as §2
Luciferase assay. Luciferase assay reagents were purchased from Promega and the assays performed according to the manufacturer's protocol. In brief, cells were washed twice with ice-cold PBS and then collected. After centrifugation at 4,500 rpm for 1 minute, cells were lysed in 1× lysis buffer (Promega) at room temperature for 30 minutes. The lysate was cleared by centrifugation at 13,000 rpm for 10 minutes. Then 50 μl of luciferase substrate was added to 10 μl of supernatant and the luciferase value was read by luminometer (Pharmingen). […]

In the next assay the test system is SH2 domain of Stat3. The assay can be described thus: IC50 FP (nM). As for the experimental part: Table printed on a drawing sheet, FIGURE 14a
Head of the field: IC50 FP (nM)
First copying reader's note: The column headed 'Structure' holds only drawn chemical structures (left empty here); the written peptidomimetic sequence stands in an unheaded column to its left.
Where the first naming reader finds the target: passage: The small peptidomimetics were assayed for their ability to bind to the SH2 domain of Stat3 using fluoresence polarization.

As usually defined, the IC50 is the concentration needed to halve the response being measured. On to `CC(=O)NC(Cc1ccc(OP(=O)(O)O)cc1)C(=O)NC1CCc2cccc3c2N(C1=O)C(C(=O)NC(CCC(N)=O)C(=O)NC(C(N)=O)C(C)O)C3` (stereo not drawn) [Compound 10, Ac-pTyr-Haic-Gln-Thr-NH2], for which the IC50 on full length Stat3 (10 nM probe and 40 nM Stat3 final, read-out: IC50 (fluorescence polarization)) lay within 100 to 200 nM.

Turning to `NC(=O)CCC(NC(=O)C1CCC2CCC(NC(=O)C=Cc3ccc(OP(=O)(O)O)cc3)C(=O)N21)C(=O)NCc1ccccc1` (stereo not drawn) [FIG. 15 compound], the IC50 on full length Stat3 (assay not named, presumably fluorescence polarization, read-out: IC50 of the FIG. 15 compound) amounted to 400 nM. For `CC(C)C[C@H](NC(=O)[C@H](Cc1ccc(OP(=O)(O)O)cc1)NC(=O)c1ccc(C#N)cc1)C(=O)O` [ISS 610], at Stat3 [1] (cell culture models, Turkson et al. (2004)), the “concentration required for activity in luciferase reporter and cell growth assays” value is 1 mM. Take `CC(=O)N[C@@H](Cc1ccc(OP(=O)(O)O)cc1)C(=O)N[C@@H](CC(C)C)C(=O)N[C@@H](CCCCN)C(=O)N[C@H](C(=O)N[C@@H](CCCCN)C(=O)N[C@@H](Cc1ccccc1)C(N)=O)[C@@H](C)O` [Peptide 2, Ac-pTyr-Leu-Lys-Thr-Lys-Phe-NH2] (Ac-[pY]LKTKF-NH2): the IC50 on Stat3 [2] amounted to 20000 nM.

Consider “Ac-Tyr-Leu-Pro-Gln-Thr-Val-mts (Ac-YLPQTV-mts; not fully specified; printed as Ac-Tyr-Leu-Pro-Gln-Thr-Val-mts; reading uncertain) [Peptide 25, non-phosphorylated control]”, for which the “reduction in luciferase activity” value in assay [3] (HEPG2, 50 or 100 μM, 1 hr before IL-6, lysed 4 h later) is recorded as “no significant reduction in luciferase activity”.

Take “Ac-pTyr-Leu-Pro-Gln-Thr-Val-mts (Ac-[pY]LPQTV-mts; reading uncertain; also: printed as Ac-pTyr-Leu-Pro-Gln-Thr-Val-mts) [Peptide 24]”: the “luciferase induction, % of that of IL-6” value in assay [3] (HEPG2, at 50 and 100 μM) is on record as 60-70%. On to “F2Pm(POM)Cinn-Haic-Gln-NHBn [Compound 23]”, for which the “inhibition of Stat3 translocation to the nucleus” value on Stat3 [4] was “inhibited Stat3 translocation to the nucleus”. Also, in assay [5], the “reduction in luciferase activity” value was “dose dependant reduction in luciferase activity”.

In turn, F2PmCinn-Cha-Pro- Gln-NHBn [8 | PM-88D] displayed an IC50 in the assay on SH2 domain of Stat3 of 2000 nM. In the case of “F2PmCinn-Leu-Pro-Gln-Thr-Val-Ala-Ala-Val-Leu-Leu-Pro-Val-Leu-Leu-Ala-Ala-Pro-NH2 [Peptide 21]”, the “luciferase activity, % of untreated cells” value is given as 50% in assay [3] (HEPG2, 50 μM) and 25% in assay [3] (HEPG2, 100 μM). Moreover, on Stat3 [4], the “inhibition of Stat3 translocation to the nucleus” value was “inhibited Stat3 translocation to the nucleus”. For the molecule “H-P[pY]LKTKAAVLLPVLLAAP-OH [SEQ ID NO:4]”, at Stat3 [1] (cell culture, Turkson et al.), the “concentration required to inhibit luciferase reporter gene expression, Stat3 nuclear translocation, and cell growth” value was 0.5 to 1 mM.

Consider “H-Pro-Tyr-Leu-Lys-Thr-Lys-Phe-Ile-mts (H-PYLKTKFI-mts; not fully specified; reading uncertain) [Peptide 26, reported by Turkson et al (2001), reference compound]”, for which, in assay [3] (HEPG2, 100 μM), the “inhibition of luciferase activity, initial screen” value is on record as “neither phosphopeptide 26 nor the unphosphorylated version, 27 (Turkson et al, 2001), showed inhibition of luciferase activity”. For “H-Pro-pTyr-Leu-Lys-Thr-Lys-Phe-Ile-mts (H-P[pY]LKTKFI-mts; reading uncertain; also: printed as H-Pro-pTyr-Leu-Lys-Thr-Lys-Phe-Ile-mts) [Peptide 27, reported by Turkson et al (2001), reference compound]”, in assay [3] (HEPG2, 100 μM), the “inhibition of luciferase activity, initial screen” value was “neither phosphopeptide 26 nor the unphosphorylated version, 27 (Turkson et al, 2001), showed inhibition of luciferase activity”. pCinn-Cha-Pro-Gln- NHBn [7 | PM-66D] had an IC50 in the assay on SH2 domain of Stat3 of 50 nM. In turn, pCinn-Leu-Pro-Gln- Thr-NH2 [5 | PM-50D] gave an IC50 with SH2 domain of Stat3 of 110 nM. Turning to pInd-Cha-Pro-Gln- NHBn [9 | PM-67D], in the assay on SH2 domain of Stat3, it took 100 nM to reach half-maximal inhibition (IC50).
